According to ChEMBL document CHEMBL1131753, “Selective binding of bryostatin analogues to the cysteine rich domains of protein kinase C isozymes” (Bioorg Med Chem Lett, 1999):

Tests used:
[1] = target: T1, Protein kinase C delta type (Homo sapiens, UniProt Q05655); assay: Displacement of [3H]PDBu from protein kinase C delta C1a domain
[2] = target: Protein kinase C beta type (Homo sapiens, UniProt P05771); assay: Displacement of [3H]PDBu from protein kinase C beta C1b domain
[3] = target: T1, Protein kinase C delta type; assay: Displacement of [3H]PDBu from protein kinase C delta C1b domain
[4] = target: T2, Protein kinase C gamma type (Homo sapiens, UniProt P05129); assay: Displacement of [3H]-PDBu from protein kinase C gamma C1a domain
[5] = target: T2, Protein kinase C gamma type; assay: Displacement of [3H]PDBu from protein kinase C gamma C1b domain
[6] = target: T3, Protein kinase C epsilon type (Homo sapiens, UniProt Q02156); assay: Displacement of [3H]PDBu from protein kinase C epsilon C1b domain
T3 sequence (Q02156 whole entry): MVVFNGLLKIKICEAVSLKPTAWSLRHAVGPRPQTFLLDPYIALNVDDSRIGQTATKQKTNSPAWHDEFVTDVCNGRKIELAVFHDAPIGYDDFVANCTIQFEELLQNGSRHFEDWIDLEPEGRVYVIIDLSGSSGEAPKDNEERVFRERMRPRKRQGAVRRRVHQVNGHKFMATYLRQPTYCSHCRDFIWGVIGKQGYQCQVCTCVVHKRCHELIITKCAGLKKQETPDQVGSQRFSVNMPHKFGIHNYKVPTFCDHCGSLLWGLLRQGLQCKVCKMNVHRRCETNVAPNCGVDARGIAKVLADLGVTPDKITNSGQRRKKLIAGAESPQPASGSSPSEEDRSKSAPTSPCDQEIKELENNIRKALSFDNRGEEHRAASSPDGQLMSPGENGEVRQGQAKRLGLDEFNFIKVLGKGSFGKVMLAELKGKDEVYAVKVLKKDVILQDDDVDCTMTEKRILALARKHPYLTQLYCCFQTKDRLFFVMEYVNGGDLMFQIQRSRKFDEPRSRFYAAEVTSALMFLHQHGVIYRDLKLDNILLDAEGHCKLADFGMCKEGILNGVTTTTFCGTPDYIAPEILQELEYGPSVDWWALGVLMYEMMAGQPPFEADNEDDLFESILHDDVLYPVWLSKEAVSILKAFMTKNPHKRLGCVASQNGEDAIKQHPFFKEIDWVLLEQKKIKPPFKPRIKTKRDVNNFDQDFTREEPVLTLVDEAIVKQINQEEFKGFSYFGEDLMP

[7] = target: Protein kinase C eta type (Homo sapiens, UniProt P24723); assay: Displacement of [3H]PDBu from protein kinase C eta C1b domain
Protein kinase C eta type, sequence (P24723 whole entry, the tested form may be a part): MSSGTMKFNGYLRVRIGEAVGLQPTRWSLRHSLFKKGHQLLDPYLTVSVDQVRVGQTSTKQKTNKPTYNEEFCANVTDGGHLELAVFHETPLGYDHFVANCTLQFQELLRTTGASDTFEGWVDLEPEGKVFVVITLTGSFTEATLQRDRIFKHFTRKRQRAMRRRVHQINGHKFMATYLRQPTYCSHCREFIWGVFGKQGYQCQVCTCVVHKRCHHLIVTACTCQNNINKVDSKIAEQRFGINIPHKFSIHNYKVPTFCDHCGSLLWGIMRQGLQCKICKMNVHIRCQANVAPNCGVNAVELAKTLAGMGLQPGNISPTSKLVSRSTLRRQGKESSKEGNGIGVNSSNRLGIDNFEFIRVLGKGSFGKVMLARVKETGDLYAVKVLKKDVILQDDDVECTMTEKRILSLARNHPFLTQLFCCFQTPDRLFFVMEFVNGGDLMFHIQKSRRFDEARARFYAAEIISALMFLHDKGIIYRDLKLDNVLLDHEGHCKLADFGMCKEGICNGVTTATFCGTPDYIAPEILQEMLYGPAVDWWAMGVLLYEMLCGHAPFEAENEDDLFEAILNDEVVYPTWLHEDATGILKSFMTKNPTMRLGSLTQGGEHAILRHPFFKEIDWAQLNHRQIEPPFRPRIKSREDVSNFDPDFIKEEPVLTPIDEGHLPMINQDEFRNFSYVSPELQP

[8] = target: Protein kinase C theta type (Homo sapiens, UniProt Q04759); assay: Displacement of [3H]PDBu from protein kinase C theta-C1B domain
Protein kinase C theta type, sequence (Q04759 whole entry, the tested form may be a part): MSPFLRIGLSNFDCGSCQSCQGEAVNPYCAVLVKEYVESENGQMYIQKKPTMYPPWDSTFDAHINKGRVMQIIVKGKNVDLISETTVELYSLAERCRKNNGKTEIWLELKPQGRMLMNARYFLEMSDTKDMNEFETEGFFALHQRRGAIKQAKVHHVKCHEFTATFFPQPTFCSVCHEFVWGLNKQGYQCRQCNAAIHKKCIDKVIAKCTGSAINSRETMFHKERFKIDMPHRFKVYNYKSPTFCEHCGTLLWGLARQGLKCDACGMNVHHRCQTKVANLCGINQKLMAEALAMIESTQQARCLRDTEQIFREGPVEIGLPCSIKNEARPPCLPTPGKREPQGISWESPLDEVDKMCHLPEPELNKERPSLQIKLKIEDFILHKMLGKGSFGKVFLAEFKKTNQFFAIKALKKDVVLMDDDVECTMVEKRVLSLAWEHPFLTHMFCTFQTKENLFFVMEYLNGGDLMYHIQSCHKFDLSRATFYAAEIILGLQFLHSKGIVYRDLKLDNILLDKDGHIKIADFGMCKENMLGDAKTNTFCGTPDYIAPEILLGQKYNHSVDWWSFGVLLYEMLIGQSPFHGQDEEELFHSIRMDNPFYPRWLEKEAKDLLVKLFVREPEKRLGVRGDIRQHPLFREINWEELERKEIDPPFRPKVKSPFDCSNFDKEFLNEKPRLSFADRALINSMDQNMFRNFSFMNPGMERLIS

[9] = target: Protein kinase C alpha type (Homo sapiens, UniProt P17252); assay: Displacement of [3H]PDBu from protein kinase C alpha C1b domain

T1 sequence (Q05655 whole entry, the tested form may be a part): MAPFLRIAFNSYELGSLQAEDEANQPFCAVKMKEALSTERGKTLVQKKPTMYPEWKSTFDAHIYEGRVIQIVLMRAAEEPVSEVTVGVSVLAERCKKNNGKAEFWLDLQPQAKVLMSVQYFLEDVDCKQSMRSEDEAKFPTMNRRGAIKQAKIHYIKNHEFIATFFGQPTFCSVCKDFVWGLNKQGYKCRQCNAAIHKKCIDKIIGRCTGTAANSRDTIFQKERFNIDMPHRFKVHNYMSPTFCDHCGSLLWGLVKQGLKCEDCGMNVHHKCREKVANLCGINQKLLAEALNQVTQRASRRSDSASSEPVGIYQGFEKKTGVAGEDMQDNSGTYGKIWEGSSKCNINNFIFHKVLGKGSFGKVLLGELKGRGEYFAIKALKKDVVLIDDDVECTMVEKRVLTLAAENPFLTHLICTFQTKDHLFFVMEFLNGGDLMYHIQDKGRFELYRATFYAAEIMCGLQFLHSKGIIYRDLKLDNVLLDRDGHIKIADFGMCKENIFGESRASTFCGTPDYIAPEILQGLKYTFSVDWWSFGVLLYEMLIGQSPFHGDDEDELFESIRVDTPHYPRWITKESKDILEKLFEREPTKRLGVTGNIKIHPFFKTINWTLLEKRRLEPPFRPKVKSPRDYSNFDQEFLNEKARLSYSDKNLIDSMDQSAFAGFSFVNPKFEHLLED
Protein kinase C beta type, sequence (P05771 whole entry, the tested form may be a part): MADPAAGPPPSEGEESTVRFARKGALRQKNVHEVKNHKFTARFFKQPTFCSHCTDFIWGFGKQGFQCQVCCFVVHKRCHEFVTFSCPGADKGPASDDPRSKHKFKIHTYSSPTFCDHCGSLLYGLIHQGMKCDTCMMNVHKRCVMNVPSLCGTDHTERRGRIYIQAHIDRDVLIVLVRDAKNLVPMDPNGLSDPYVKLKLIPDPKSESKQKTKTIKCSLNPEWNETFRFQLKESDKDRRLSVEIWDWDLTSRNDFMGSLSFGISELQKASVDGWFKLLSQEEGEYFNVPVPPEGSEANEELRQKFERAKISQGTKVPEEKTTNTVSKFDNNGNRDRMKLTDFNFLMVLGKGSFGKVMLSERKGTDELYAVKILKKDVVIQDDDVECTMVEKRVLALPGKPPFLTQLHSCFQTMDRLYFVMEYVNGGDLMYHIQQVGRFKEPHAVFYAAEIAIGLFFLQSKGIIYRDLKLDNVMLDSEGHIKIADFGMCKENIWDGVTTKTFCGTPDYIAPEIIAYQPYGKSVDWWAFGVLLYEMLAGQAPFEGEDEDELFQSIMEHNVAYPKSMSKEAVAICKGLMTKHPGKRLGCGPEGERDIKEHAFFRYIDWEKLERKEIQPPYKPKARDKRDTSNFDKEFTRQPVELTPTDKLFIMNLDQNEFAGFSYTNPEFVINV

Row | SMILES | Ki [1] | Ki [2] | Ki [3] | Ki [4] | Ki [5] | Ki [6] | Ki [7] | Ki [8] | Ki [9]
1 | CCCCCCCC(=O)O[C@H]1/C(=C/C(=O)OC)CC2C[C@H]([C@@H](C)O)OC(=O)C[C@H](O)CCO[C@H](C(C)(C)C)C[C@@H]3CCO[C@H](/C=C/C(C)(C)[C@]1(O)O2)O3 | 85.4 nM | 36.4 nM | 6.3 nM | > 500 nM | > 500 nM | 55 nM | 70.2 nM | 24.1 nM | > 500 nM
2 | CCCCCCCC(=O)O[C@H]1/C(=C/C(=O)OC)CC2C[C@H]([C@@H](C)O)OC(=O)C[C@@H](O)C[C@@H]3CCC[C@H](C[C@@H]4CCO[C@H](/C=C/C(C)(C)[C@]1(O)O2)O4)O3 | 494 nM | 280 nM | 64.2 nM | > 500 nM | > 500 nM | 490 nM | > 500 nM | 147 nM | > 500 nM
3 | CCCCCCCC(=O)O[C@H]1/C(=C/C(=O)OC)CC2C[C@H]([C@@H](C)O)OC(=O)C[C@H](O)C[C@@H]3CCC[C@H](C[C@@H]4CCO[C@H](/C=C/C(C)(C)[C@]1(O)O2)O4)O3 | 65.9 nM | 13.4 nM | 2.5 nM | > 500 nM | > 500 nM | 17.9 nM | 23.5 nM | 6.6 nM | 126 nM
